From patent US20230416248A1, “COMPOUNDS AND USES THEREOF” (Foghorn Therapeutics Inc., priority 2020, published 2023)
Read-outs that look alike come from different tables or passages of the source.

How the values were obtained:
BRG-1 = molecular target: T1, BRG-1 (Homo sapiens, UniProt P51532); experiment: ATPase catalytic activity of BRG-1, ADP-Glo in vitro biochemical assay; settings: 30 nM BRG-1, 400 μM ATP, read-out: BRG1 IC50
T1 construct: made in house; host or cells: High Five insect cells
Summary of the method: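 BRG-1 ATPase activity was measured in vitro by ADP-Glo. After the reaction, ADP-Glo Reagent depleted unconsumed ATP (40 min, room temperature), then Kinase Detection Reagent converted product ADP to ATP (60 min, room temperature), and luciferase luminescence was read.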

BRM = molecular target: T2, BRM (Homo sapiens, UniProt P51531); experiment: ATPase catalytic activity of BRM, ADP-Glo in vitro biochemical assay; settings: for IC50: 30 nM BRM, 400 μM ATP; for Ratio* (BRG1 IC50 (μM) divided by BRM IC50 (μM)): selectivity ratio BRG1 IC50 / BRM IC50
T2 construct: made in house; host or cells: High Five insect cells
Summary of the method: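 Recombinant BRM (30 nM) hydrolysed 400 μM ATP with 20 nM salmon sperm DNA in pH 8 Tris buffer containing 20 mM MgCl2, 50 mM NaCl, 0.1% Tween-20 and 1 mM DTT, 1 h at room temperature. ADP formed was quantified by ADP-Glo luminescence.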

[1] = ATPase catalytic activity, ADP-Glo

T2 sequence (P51531 whole entry): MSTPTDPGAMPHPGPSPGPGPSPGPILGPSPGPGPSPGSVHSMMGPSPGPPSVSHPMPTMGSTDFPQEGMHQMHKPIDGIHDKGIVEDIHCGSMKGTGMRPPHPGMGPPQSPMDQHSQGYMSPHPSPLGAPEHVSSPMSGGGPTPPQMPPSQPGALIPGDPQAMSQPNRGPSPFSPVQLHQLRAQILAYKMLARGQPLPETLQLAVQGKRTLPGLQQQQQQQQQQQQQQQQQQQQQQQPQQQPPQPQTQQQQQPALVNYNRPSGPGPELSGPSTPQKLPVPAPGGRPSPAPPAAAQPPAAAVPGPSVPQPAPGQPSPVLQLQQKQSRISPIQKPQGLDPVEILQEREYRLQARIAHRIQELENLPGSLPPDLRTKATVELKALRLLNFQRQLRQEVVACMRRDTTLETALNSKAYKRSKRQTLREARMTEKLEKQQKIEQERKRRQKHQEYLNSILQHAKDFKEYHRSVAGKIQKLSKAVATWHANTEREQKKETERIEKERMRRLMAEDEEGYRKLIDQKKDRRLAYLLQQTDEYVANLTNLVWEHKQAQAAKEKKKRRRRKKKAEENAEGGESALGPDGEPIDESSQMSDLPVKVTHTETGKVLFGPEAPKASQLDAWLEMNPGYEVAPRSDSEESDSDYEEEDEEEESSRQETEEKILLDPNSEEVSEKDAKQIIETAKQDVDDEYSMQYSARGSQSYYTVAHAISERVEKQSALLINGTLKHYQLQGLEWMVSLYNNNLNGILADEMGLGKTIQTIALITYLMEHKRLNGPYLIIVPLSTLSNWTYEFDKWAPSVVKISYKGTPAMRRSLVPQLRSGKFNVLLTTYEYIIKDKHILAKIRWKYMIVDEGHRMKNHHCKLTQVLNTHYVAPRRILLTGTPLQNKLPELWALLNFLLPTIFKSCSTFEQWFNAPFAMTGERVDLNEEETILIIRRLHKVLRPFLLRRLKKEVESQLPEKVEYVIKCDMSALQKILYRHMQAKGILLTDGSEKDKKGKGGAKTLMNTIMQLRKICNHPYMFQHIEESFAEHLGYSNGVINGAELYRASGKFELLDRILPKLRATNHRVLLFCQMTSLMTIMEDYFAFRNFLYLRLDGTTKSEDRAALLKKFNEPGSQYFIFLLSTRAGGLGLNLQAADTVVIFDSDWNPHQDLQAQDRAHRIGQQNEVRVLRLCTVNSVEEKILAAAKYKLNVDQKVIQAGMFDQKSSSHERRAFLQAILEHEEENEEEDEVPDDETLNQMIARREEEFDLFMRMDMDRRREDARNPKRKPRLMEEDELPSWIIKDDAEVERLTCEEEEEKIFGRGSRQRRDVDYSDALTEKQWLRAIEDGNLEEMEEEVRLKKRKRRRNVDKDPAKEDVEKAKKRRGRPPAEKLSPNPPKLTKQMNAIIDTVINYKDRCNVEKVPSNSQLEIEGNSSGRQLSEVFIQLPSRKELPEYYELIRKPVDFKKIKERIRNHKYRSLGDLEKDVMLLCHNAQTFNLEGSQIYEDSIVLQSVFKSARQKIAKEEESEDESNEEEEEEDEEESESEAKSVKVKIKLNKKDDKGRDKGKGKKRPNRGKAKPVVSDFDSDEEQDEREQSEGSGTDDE
T1 sequence (P51532 whole entry): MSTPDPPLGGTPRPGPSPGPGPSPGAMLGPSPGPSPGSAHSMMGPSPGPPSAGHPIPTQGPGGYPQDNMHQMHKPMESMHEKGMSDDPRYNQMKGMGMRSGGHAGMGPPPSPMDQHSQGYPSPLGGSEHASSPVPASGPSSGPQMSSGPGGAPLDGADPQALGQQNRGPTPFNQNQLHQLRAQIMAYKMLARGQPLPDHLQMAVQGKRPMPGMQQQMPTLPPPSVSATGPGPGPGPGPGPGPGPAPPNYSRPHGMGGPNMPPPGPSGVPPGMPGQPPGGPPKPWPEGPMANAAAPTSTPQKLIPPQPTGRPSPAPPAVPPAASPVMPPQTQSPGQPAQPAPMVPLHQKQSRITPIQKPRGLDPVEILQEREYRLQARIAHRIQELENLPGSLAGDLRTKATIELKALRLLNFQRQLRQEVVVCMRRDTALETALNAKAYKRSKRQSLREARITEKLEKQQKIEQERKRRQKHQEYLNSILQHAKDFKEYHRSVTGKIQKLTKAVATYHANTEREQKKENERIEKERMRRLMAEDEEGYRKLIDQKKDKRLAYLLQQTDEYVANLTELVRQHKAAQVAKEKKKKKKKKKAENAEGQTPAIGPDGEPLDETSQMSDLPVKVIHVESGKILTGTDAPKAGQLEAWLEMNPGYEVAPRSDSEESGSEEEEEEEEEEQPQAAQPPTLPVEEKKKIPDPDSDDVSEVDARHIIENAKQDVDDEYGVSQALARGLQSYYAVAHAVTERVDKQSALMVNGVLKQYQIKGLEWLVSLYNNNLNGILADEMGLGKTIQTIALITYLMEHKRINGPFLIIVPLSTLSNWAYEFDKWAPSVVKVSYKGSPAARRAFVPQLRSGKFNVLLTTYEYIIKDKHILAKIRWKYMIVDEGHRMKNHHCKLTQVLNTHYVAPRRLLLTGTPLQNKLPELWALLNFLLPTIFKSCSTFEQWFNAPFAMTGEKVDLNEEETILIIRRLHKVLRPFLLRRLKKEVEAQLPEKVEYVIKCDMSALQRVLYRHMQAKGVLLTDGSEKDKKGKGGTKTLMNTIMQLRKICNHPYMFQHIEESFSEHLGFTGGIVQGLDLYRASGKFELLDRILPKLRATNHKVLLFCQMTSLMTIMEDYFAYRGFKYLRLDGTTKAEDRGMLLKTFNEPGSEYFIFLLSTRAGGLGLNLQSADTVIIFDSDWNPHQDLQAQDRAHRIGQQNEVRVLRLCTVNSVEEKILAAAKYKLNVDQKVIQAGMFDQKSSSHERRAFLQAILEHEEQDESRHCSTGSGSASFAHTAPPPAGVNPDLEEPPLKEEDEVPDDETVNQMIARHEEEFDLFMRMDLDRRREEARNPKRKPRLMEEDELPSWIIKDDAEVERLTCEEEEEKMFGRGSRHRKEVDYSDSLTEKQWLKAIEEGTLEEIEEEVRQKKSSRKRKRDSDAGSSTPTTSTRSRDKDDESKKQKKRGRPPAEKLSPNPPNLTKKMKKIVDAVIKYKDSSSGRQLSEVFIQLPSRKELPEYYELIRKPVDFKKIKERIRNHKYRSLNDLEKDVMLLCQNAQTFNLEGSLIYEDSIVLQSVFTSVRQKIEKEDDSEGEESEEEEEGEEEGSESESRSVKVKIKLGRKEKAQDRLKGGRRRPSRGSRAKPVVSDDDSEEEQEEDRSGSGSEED

| SMILES | IC50 (BRG-1; [1]) | IC50 (BRM; [1]) | Ratio* (BRM; ratio of BRG1 IC50 to BRM IC50) | IC50 (BRG-1; ADP-Glo ATPase assay) | IC50 (BRM; ADP-Glo ATPase assay) | Ratio* (BRG1 IC50 (μM) divided by BRM IC50 (μM)) (BRM) | Ratio* (BRM; ratio BRG1 IC50 / BRM IC50) |
| --- | --- | --- | --- | --- | --- | --- | --- |
| COc1nc(C(C)(F)F)ccc1-c1ccc2cnc(CNC(=O)c3ccc4c(c3)S(=O)(=O)[C@@H](C)COC4)cc2n1 [Compound 542] | 229 nM | 16.8 nM | 13.60 |  |  |  |  |
| C[C@@H]1CN(c2cccc(-c3ccc4cnc(CNC(=O)c5cc(C6CC6)c6c(c5)S(=O)(=O)CCOC6)cc4n3)n2)C[C@H](C)O1 [Compound 75] |  |  |  | 681 nM | 34.6 nM | 19.65 |  |
| C[C@@H]1CN(c2cccc(-c3ccc4cnc(CNC(=O)c5ccc(C(F)F)c(S(C)(=O)=O)c5)cc4n3)n2)C[C@H](C)O1 [Compound 206] |  |  |  | 110 nM | 8 nM | 13.71 |  |
| CC1(c2cnc3c(c2)OCCN3c2ccc3cnc(CNC(=O)c4ccc5c(c4)S(=O)(=O)CCOC5)cc3n2)CC1 [Compound 712] |  |  |  | 102 nM | 8.6 nM |  | 11.90 |
| COc1cnc2c(c1)OCCN2c1ccc2cnc(CNC(=O)c3ccc4c(c3)S(=O)(=O)CCOC4)cc2n1 [Compound 619] | 62.7 nM | 5.6 nM | 11.17 |  |  |  |  |
| CC1COCc2ccc(C(=O)NCc3cc4nc(N5CCOc6cccnc65)ccc4cn3)cc2S1(=O)=O (stereo not drawn) [Compound 523] | 181 nM | 11.6 nM | 15.53 |  |  |  |  |
| COCCN1CCOc2c(-c3ccc4cnc(CNC(=O)c5ccc(Cl)c(S(C)(=O)=O)c5)cc4n3)cccc21 [Compound 88] |  |  |  | 535 nM | 34.2 nM | 15.63 |  |
| Cc1cnc2c(c1)CCCN2c1ccc2cnc(CNC(=O)c3cc(F)c4c(c3)S(=O)(=O)CCOC4)cc2n1 [Compound 395] | 58.6 nM | 4.1 nM | 14.47 |  |  |  |  |
| C[C@@H]1CN(c2cccc(-c3ccc4cnc(CNC(=O)c5ccc6c(c5)S(=O)(=O)CCC5(CC5)O6)cc4n3)n2)C[C@H](C)O1 [Compound 704] |  |  |  | 2110 nM | 91.1 nM |  | 23.18 |
| O=C(NCc1cc2cc(N3CCOc4cnc(C5CC5)nc43)ccc2cn1)c1ccc2c(c1)S(=O)(=O)CCOC2 [Compound 822] |  |  |  | 458 nM | 36.7 nM |  | 12.47 |
| C[C@@H]1CN(c2cccc(-c3ccc4cnc(CNC(=O)c5ccc6c(c5)S(=O)(=O)[C@@H](C)COC6)cc4n3)c2F)C[C@H](C)O1 [Compound 609] | 1110 nM | 39.2 nM | 28.40 |  |  |  |  |
| O=C(NCc1cc2nc(N3CCCC4CCCCC43)ccc2cn1)c1ccc2c(c1)S(=O)(=O)CCOC2 (stereo not drawn) [Compound 640] | 4400 nM | 615 nM | 7.16 |  |  |  |  |
| O=C(NCc1cc2nc(N3CCOc4nc(C(F)F)ccc43)ccc2cn1)c1ccc2c(c1)S(=O)(=O)CCOC2 [Compound 846] |  |  |  | 4570 nM | 406 nM |  | 11.26 |
| Cc1ccc2c(n1)N(c1ccc3cnc(CNC(=O)c4ccc5c(c4)S(=O)(=O)CCOC5)cc3c1)CCO2 [Compound 679] | 423 nM | 18.9 nM | 22.41 |  |  |  |  |
| C[C@H]1COCc2c(F)cc(C(=O)NCc3cc4nc(-c5cccc(C6CC6)n5)ccc4cn3)cc2S1(=O)=O [Compound 458] | 654 nM | 19.2 nM | 34.03 |  |  |  |  |
| C[C@@H]1CN(c2cccc(-c3ccc4cnc(CNC(=O)c5ccc6c(c5)S(=O)(=O)CC[C@H](C)O6)cc4n3)n2)C[C@H](C)O1 [Compound 418] | 193 nM | 13.6 nM | 14.19 |  |  |  |  |
| Cc1cnc2c(c1)N(C)CCN2c1ccc2cnc(CNC(=O)c3ccc4c(c3)S(=O)(=O)CCOC4)cc2n1 [Compound 618] | 126 nM | 9 nM | 14.00 |  |  |  |  |
| CCN(CC)c1cccc(-c2ccc3cnc(CNC(=O)c4cc(F)c5c(c4)S(=O)(=O)CCOC5)cc3n2)n1 [Compound 62] |  |  |  | 247 nM | 18.9 nM | 13.08 |  |
| Cn1ncc2c1CCCN2c1ccc2cnc(CNC(=O)c3ccc4c(c3)S(=O)(=O)CCOC4)cc2n1 [Compound 380] | 511 nM | 98.2 nM | 5.20 |  |  |  |  |
| CS(=O)(=O)c1cc(C(=O)NCc2cc3nc(-c4cccc(C5CC5)n4)ccc3cn2)ccc1C#N [Compound 259] |  |  |  | 5000 nM | 467 nM | 10.71 |  |
| C[C@H]1COCc2ccc(C(=O)NCc3cc4nc(N5CCCc6cc(N(C)C)cnc65)ccc4cn3)cc2S1(=O)=O [Compound 650] | 115 nM | 12.7 nM | 9.04 |  |  |  |  |

Other lines, results leading:

| IC50 (BRG-1; [1]) | IC50 (BRM; [1]) | Ratio* (BRM; ratio of BRG1 IC50 to BRM IC50) | IC50 (BRG-1; ADP-Glo ATPase assay) | IC50 (BRM; ADP-Glo ATPase assay) | Ratio* (BRG1 IC50 (μM) divided by BRM IC50 (μM)) (BRM) | Ratio* (BRM; ratio BRG1 IC50 / BRM IC50) | SMILES |
| --- | --- | --- | --- | --- | --- | --- | --- |
| 495 nM | 47.1 nM | 10.49 |  |  |  |  | COc1cc(CC(F)F)ccc1-c1ccc2cnc(CNC(=O)c3ccc4c(c3)S(=O)(=O)CCOC4)cc2n1 [Compound 316] |
| 549 nM | 54.5 nM | 10.07 |  |  |  |  | O=C(NCc1cc2nc(-c3ccc4c(n3)C(F)(F)CC4)ccc2cn1)c1ccc2c(c1)S(=O)(=O)CCOC2 [Compound 678] |
| 966 nM | 101 nM | 9.58 |  |  |  |  | CC1CCc2ccc(-c3ccc4cnc(CNC(=O)c5ccc6c(c5)S(=O)(=O)CCOC6)cc4n3)nc2N1C1CC1 (stereo not drawn) [Compound 425] |
|  |  |  | 9.9 nM | 3 nM | 3.33 |  | Cc1cc(-c2cccc(-c3ccc4cnc(CNC(=O)c5ccc6c(c5)S(=O)(=O)CCOC6)cc4n3)n2)cc(C)n1 [Compound 169] |
|  |  |  | 2000 nM | 325 nM | 6.16 |  | O=C(NCc1cc2nc(-c3ccccc3Cl)ccc2cn1)c1ccc2c(c1)S(=O)(=O)CCOC2 [Compound 247] |
| 883 nM | 227 nM | 3.90 |  |  |  |  | COC[C@H]1COc2c(-c3ccc4cnc(CNC(=O)c5ccc6c(c5)S(=O)(=O)CCOC6)cc4n3)cccc2N1C [Compound 638] |
| 114 nM | 7.8 nM | 14.57 |  |  |  |  | COc1nc(-c2ccc3cnc(CNC(=O)c4ccc5c(c4)S(=O)(=O)CCOC5)cc3n2)ccc1C(F)F [Compound 399] |
|  |  |  | 252 nM | 24.9 nM | 10.11 |  | COc1cc(C(F)F)ccc1-c1ccc2cnc(CNC(=O)c3ccc4c(c3)S(=O)(=O)CCOC4)cc2n1 [Compound 118] |
|  |  |  | 1350 nM | 147 nM | 9.21 |  | CN1CCN(c2cccc(-c3ccc4cnc(CNC(=O)c5ccc6c(c5)S(=O)(=O)CCOC6)cc4n3)n2)CC1 [Compound 144] |
| 143 nM | 16.6 nM | 8.58 |  |  |  |  | O=C(NCc1cc2nc(-c3cccc4c3OCC[C@H]4OC3COC3)ccc2cn1)c1ccc2c(c1)S(=O)(=O)CCOC2 [Compound 409] |
| 420 nM | 43.3 nM | 9.72 |  |  |  |  | C[C@@H]1CCN(C)c2nc(-c3ccc4cnc(CNC(=O)c5ccc6c(c5)S(=O)(=O)CCOC6)cc4n3)ccc21 [Compound 695] |
|  |  |  | 669 nM | 60.8 nM | 11.00 |  | Cn1ccc2c(-c3ccc4cnc(CNC(=O)c5ccc6c(c5)S(=O)(=O)CCOC6)cc4n3)ccnc21 [Compound 151] |
| 1190 nM | 290 nM | 4.12 |  |  |  |  | O=C(NCc1cc2nc(-c3ccc4c(n3)OCCC4)ccc2cn1)c1ccc2c(c1)S(=O)(=O)CCOC2 [Compound 499] |
